# Reference: paper PMC4488288, “Inhibition of the Inositol Kinase Itpkb Augments Calcium Signaling in Lymphocytes and Reveals a Novel Strategy to Treat Autoimmune Disease” (PLoS ONE, 2015)
# Molecular target: T1, Itpkb (inositol trisphosphate 3' kinase B) (Mus musculus, UniProt B2RXC2)
# T1 sequence (B2RXC2 1-942): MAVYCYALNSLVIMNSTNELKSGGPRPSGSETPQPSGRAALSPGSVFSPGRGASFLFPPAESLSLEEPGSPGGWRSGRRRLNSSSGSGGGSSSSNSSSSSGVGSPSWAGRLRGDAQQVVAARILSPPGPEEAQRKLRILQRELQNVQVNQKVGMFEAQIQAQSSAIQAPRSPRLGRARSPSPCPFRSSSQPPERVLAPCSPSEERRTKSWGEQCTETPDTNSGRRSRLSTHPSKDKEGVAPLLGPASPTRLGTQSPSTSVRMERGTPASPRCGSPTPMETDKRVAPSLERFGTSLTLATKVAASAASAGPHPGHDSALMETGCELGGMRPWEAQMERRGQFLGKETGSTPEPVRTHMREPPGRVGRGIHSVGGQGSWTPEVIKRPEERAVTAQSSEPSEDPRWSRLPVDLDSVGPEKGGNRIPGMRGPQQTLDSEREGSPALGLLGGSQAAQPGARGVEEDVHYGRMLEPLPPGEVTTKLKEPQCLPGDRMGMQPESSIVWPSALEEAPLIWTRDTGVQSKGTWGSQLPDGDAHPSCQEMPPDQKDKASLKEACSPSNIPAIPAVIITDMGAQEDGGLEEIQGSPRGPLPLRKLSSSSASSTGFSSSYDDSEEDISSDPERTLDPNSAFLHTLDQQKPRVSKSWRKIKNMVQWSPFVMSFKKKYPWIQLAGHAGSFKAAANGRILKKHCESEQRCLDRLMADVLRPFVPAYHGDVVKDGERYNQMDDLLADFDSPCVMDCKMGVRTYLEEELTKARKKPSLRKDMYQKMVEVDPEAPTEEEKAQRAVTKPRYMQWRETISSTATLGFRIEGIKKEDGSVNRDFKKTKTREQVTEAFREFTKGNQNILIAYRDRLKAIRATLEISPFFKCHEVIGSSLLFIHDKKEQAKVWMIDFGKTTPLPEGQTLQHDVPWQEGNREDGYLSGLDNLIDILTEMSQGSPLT
# Experiment: Kinase-Glo assay with purified Itpkb ([…] Itpkb, […] ATP, […] IP3)
# Type: biochemical
substance,measurement,value
GNF362,IC50,9 nM
